The values that follow come from patent publication US20250059185A1 (Hoffmann-La Roche Inc., priority 2021, published 2025).

MAGL, sequence (Q99685 whole entry, species assumed): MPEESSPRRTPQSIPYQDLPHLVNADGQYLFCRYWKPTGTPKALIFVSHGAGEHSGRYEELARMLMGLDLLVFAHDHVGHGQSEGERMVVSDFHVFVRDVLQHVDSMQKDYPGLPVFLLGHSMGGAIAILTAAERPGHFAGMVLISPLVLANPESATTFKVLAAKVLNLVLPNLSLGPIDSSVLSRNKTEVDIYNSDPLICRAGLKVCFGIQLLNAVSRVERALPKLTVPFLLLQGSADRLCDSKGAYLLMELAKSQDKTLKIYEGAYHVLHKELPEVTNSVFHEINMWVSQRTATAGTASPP

This experiment addresses MAGL (Homo sapiens (Human), UniProt Q99685). As to the kind of experiment: 2-AG assay (MAGL inhibitory activity, hydrolysis of 2-arachidonoylglycerol followed by mass spectrometry). To be noted: 50 pM MAGL protein, 15 min pre-incubation, 30 min incubation at RT. The experiment is classed as biochemical. In a few lines:
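Human MAGL (50 pM final) preincubated 15 min at RT with compound (3-fold dilutions, 12.5 μM to 0.8 pM final) in 50 mM TRIS, 1 mM EDTA, 0.01% Tween-20, 2.5% DMSO. Reaction with […] 2-AG ran 30 min at RT, then was quenched with acetonitrile containing d8-arachidonic acid. Arachidonic acid measured by SPE–triple-quad MS (negative ESI), activity from the arachidonic/d8-arachidonic acid intensity ratio.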
For `COCCOc1cc(Cl)cc(-c2c3c(nn2C)[C@H](C)N(C(=O)c2cccc(OC)c2Cl)CC3)c1` [Example 69, [(7S)-3-[3-chloro-5-(2-methoxyethoxy)phenyl]-2,7-dimethyl-5,7-dihydro-4H-pyrazolo[3,4-c]pyridin-6-yl]-(2-chloro-3-methoxy-phenyl)methanone], 3 nM corresponded to half-maximal inhibition (IC50).

Compound `CC1c2nn(C)c(-c3cc(Cl)cc(C4(C(N)=O)CC4)c3)c2CCN1C(=O)c1cc(F)cc(OCC2CNC(=O)C2)c1Cl` (centres unmarked) [Example 70, 1-[3-chloro-5-[6-[2-chloro-5-fluoro-3-[(5-oxopyrrolidin-3-yl)methoxy]benzoyl]-2,7-dimethyl-5,7-dihydro-4H-pyrazolo[3,4-c]pyridin-3-yl]phenyl]cyclopropanecarboxamide] returned an IC50 of 42 nM.

In turn, `C[C@H]1c2nn(C)c(-c3cc(Cl)cc(C4(C(N)=O)CC4)c3)c2CCN1C(=O)c1cc(F)cc(-c2c[nH]c(C#N)c2)c1Cl` [Example 71, 1-[3-chloro-5-[(7S)-6-[2-chloro-3-(5-cyano-1H-pyrrol-3-yl)-5-fluoro-benzoyl]-2,7-dimethyl-5,7-dihydro-4H-pyrazolo[3,4-c]pyridin-3-yl]phenyl]cyclopropanecarboxamide] showed an IC50 of 2160 nM.

The compound `C[C@@H]1c2nn(C)c(-c3cc(Cl)cc(C4(C(N)=O)CC4)c3)c2CCN1C(=O)c1cc(F)cc(-c2c[nH]c(C#N)c2)c1Cl` [Example 72, 1-[3-chloro-5-[(7R)-6-[2-chloro-3-(5-cyano-1H-pyrrol-3-yl)-5-fluoro-benzoyl]-2,7-dimethyl-5,7-dihydro-4H-pyrazolo[3,4-c]pyridin-3-yl]phenyl]cyclopropanecarboxamide] showed an IC50 of 62 nM.

Compound `C[C@H]1c2nn(C)c(-c3cc(Cl)cc(C4(S(C)(=O)=O)CC4)c3)c2CCN1C(=O)c1cc(F)cc(-c2ccc(=O)[nH]c2)c1Cl` [Example 73, 5-[2-chloro-3-[(7S)-3-[3-chloro-5-(1-methylsulfonylcyclopropyl)phenyl]-2,7-dimethyl-5,7-dihydro-4H-pyrazolo[3,4-c]pyridine-6-carbonyl]-5-fluoro-phenyl]-1H-pyridin-2-one] registered an IC50 of 145 nM.

Compound `C[C@@H]1c2nn(C)c(-c3cc(Cl)cc(C4(S(C)(=O)=O)CC4)c3)c2CCN1C(=O)c1cc(F)cc(-c2ccc(=O)[nH]c2)c1Cl` [Example 74, 5-[2-chloro-3-[(7R)-3-[3-chloro-5-(1-methylsulfonylcyclopropyl)phenyl]-2,7-dimethyl-5,7-dihydro-4H-pyrazolo[3,4-c]pyridine-6-carbonyl]-5-fluoro-phenyl]-1H-pyridin-2-one] registered an IC50 of 293 nM.

In turn, `C[C@H]1c2nn(C)c(-c3cc(Cl)cc(C4(C(N)=O)CC4)c3)c2CCN1C(=O)c1cc(F)cc(N2CC3(C2)CS(=O)(=O)C3)c1Cl` [Example 75, 1-[3-chloro-5-[(7S)-6-[2-chloro-3-(2,2-dioxo-2λ^6-thia-6-azaspiro[3.3]heptan-6-yl)-5-fluoro-benzoyl]-2,7-dimethyl-5,7-dihydro-4H-pyrazolo[3,4-c]pyridin-3-yl]phenyl]cyclopropanecarboxamide] gave a half-inhibitory concentration (IC50) of 1240 nM.

`C[C@@H]1c2nn(C)c(-c3cc(Cl)cc(C4(C(N)=O)CC4)c3)c2CCN1C(=O)c1cc(F)cc(N2CC3(C2)CS(=O)(=O)C3)c1Cl` [Example 76, 1-[3-chloro-5-[(7R)-6-[2-chloro-3-(2,2-dioxo-2λ^6-thia-6-azaspiro[3.3]heptan-6-yl)-5-fluoro-benzoyl]-2,7-dimethyl-5,7-dihydro-4H-pyrazolo[3,4-c]pyridin-3-yl]phenyl]cyclopropanecarboxamide] returned an IC50 of 1420 nM.

`C[C@H]1c2nn(C)c(-c3cc(F)cc(F)c3)c2CCN1C(=O)c1ncn(-c2ccc[nH]c2=O)c1Cl` [Example 77, 3-[5-chloro-4-[(7S)-3-(3,5-difluorophenyl)-2,7-dimethyl-5,7-dihydro-4H-pyrazolo[3,4-c]pyridine-6-carbonyl]imidazol-1-yl]-1H-pyridin-2-one] displayed an IC50 of 1460 nM.

`C[C@H]1c2nn(C)c(-c3cc(Cl)cc(C4(S(C)(=O)=O)CC4)c3)c2CCN1C(=O)c1ncn(-c2ccc[nH]c2=O)n1` [Example 78, 3-[3-[(7S)-3-[3-chloro-5-(1-methylsulfonylcyclopropyl)phenyl]-2,7-dimethyl-5,7-dihydro-4H-pyrazolo[3,4-c]pyridine-6-carbonyl]-1,2,4-triazol-1-yl]-1H-pyridin-2-one] gave an IC50 of 275 nM.

The compound `COCCOc1cc(Cl)cc(-c2c3c(nn2C)[C@@H](C)N(C(=O)c2cccc(OC)c2Cl)CC3)c1` [Example 79, [(7R)-3-[3-chloro-5-(2-methoxyethoxy)phenyl]-2,7-dimethyl-5,7-dihydro-4H-pyrazolo[3,4-c]pyridin-6-yl]-(2-chloro-3-methoxy-phenyl)methanone] returned an IC50 of 1240 nM.

With `COc1cccc(C(=O)N2CCc3c(nn(C)c3-c3cc(CNS(C)(=O)=O)cc(Cl)n3)C2C)c1Cl` (centres unmarked) [Example 80, N-[[2-chloro-6-[6-(2-chloro-3-methoxy-benzoyl)-2,7-dimethyl-5,7-dihydro-4H-pyrazolo[3,4-c]pyridin-3-yl]-4-pyridyl]methyl]methanesulfonamide], the IC50 was 240 nM.

On to `COc1cccc(C(=O)N2CCc3c(nn(C)c3-c3ccnc(C(F)(F)F)n3)[C@@H]2C)c1Cl` [Example 81, (2-chloro-3-methoxy-phenyl)-[(7S)-2,7-dimethyl-3-[2-(trifluoromethyl)pyrimidin-4-yl]-5,7-dihydro-4H-pyrazolo[3,4-c]pyridin-6-yl]methanone], for which the 50% inhibitory concentration (IC50) was found to be 21 nM.

`CC1c2nn(C)c(-c3cc(Cl)cc(C4(NS(C)(=O)=O)CC4)c3)c2CCN1C(=O)c1cc(F)cc(-c2c[nH]c(C#N)c2)c1Cl` (centres unmarked) [Example 84, N-[1-[3-chloro-5-[6-[2-chloro-3-(5-cyano-1H-pyrrol-3-yl)-5-fluoro-benzoyl]-2,7-dimethyl-5,7-dihydro-4H-pyrazolo[3,4-c]pyridin-3-yl]phenyl]cyclopropyl]methanesulfonamide] showed a 50% inhibitory concentration (IC50) of 6.18 nM.

`C[C@H]1c2nn(C)c(-c3cc(Cl)cc(C4(NS(C)(=O)=O)CC4)c3)c2CCN1C(=O)c1cc(F)cc(-c2c[nH]c(C#N)c2)c1Cl` [Example 85, N-[1-[3-chloro-5-[(7S)-6-[2-chloro-3-(5-cyano-1H-pyrrol-3-yl)-5-fluoro-benzoyl]-2,7-dimethyl-5,7-dihydro-4H-pyrazolo[3,4-c]pyridin-3-yl]phenyl]cyclopropyl]methanesulfonamide] had an IC50 of 13.8 nM.

In the case of `C[C@@H]1c2nn(C)c(-c3cc(Cl)cc(C4(NS(C)(=O)=O)CC4)c3)c2CCN1C(=O)c1cc(F)cc(-c2c[nH]c(C#N)c2)c1Cl` [Example 86, N-[1-[3-chloro-5-[(7R)-6-[2-chloro-3-(5-cyano-1H-pyrrol-3-yl)-5-fluoro-benzoyl]-2,7-dimethyl-5,7-dihydro-4H-pyrazolo[3,4-c]pyridin-3-yl]phenyl]cyclopropyl]methanesulfonamide], half-maximal inhibition (IC50) required 1010 nM.

The compound `CC1c2nn(C)c(-c3cc(Cl)cc(C4(NS(C)(=O)=O)CC4)c3)c2CCN1C(=O)c1cc(F)cc(CCc2c[nH]nn2)c1Cl` (centres unmarked) [Example 87, N-[1-[3-chloro-5-[6-[2-chloro-5-fluoro-3-[2-(H-triazol-4-yl)ethyl]benzoyl]-2,7-dimethyl-5,7-dihydro-4H-pyrazolo[3,4-c]pyridin-3-yl]phenyl]cyclopropyl]methanesulfonamide] yielded an IC50 of 8.15 nM.
